Assay results: article PMC6429263, “Evolution and Antibacterial Evaluation of 8-Hydroxy-cycloberberine Derivatives as a Novel Family of Antibacterial Agents Against MRSA” (Molecules, 2019)
Where “and” joins values, the source holds several entries; their conditions need not be identical. Identical values can stand only once. Counter-ions that a name gives are not always drawn. Each block holds one compound with its values, some of them ahead of it.

What was measured:
[1] = test system: MRSA ATCC 43300; test: MIC, agar dilution, MRSA ATCC 43300; assay type: cell-based; conditions: Staphylococcus aureus; MRSA ATCC 43300; read-out: MIC
[2] = test system: MSSA ATCC 29213; test: MIC, agar dilution, MSSA ATCC 29213; assay type: cell-based, S. aureus; conditions: Staphylococcus aureus; MSSA ATCC 29213; read-out: MIC
[3] = test system: MSSE ATCC 12228; test: MIC, agar dilution, MSSE ATCC 12228; assay type: cell-based, S. epidermidis; conditions: Staphylococcus epidermidis, ATCC12228; MSSE ATCC 12228; read-out: MIC
[4] = test system: MSSA 15; test: MIC, agar dilution, MSSA 15 (clinical isolate); assay type: cell-based, S. aureus; conditions: Staphylococcus aureus; MSSA 15, isolated from patients in China; read-out: MIC
[5] = test system: MRSE 16-5; test: MIC, agar dilution, MRSE 16-5; assay type: cell-based, S. epidermidis; conditions: Staphylococcus epidermidis; MRSE 16-5; read-out: MIC
[6] = test system: MSSE 16-5; test: MIC, agar dilution, MSSE 16-5 (clinical isolate); assay type: cell-based, S. epidermidis; conditions: Staphylococcus epidermidis; MSSE 16-5, isolated from patients in China; read-out: MIC
[7] = test system: MRSE 13-3; test: MIC, agar dilution, MRSE 13-3; assay type: cell-based, S. epidermidis; conditions: Staphylococcus epidermidis; MRSE 13-3; read-out: MIC
[8] = test system: VISA ATCC 700699; test: MIC, agar dilution, VISA ATCC 700699; assay type: cell-based; conditions: Staphylococcus aureus; VISA ATCC 700699; read-out: MIC
[9] = test system: MRSA 13-18; test: MIC, agar dilution, MRSA 13-18; assay type: cell-based; conditions: Staphylococcus aureus; MRSA 13-18; read-out: MIC
[10] = test system: S.h ATCC 35982; test: MIC, agar dilution, S.h ATCC 35982; assay type: cell-based; conditions: Staphylococcus hominis, ATCC35982; S. hominis ATCC 35982; read-out: MIC
[11] = test system: MSSA 16-1; test: MIC, agar dilution, MSSA 16-1 (clinical isolate); assay type: cell-based, S. aureus; conditions: Staphylococcus aureus; MSSA 16-1, isolated from patients in China; read-out: MIC
[12] = test system: VISA ATCC 700698; test: MIC, agar dilution, VISA ATCC 700698; assay type: cell-based; conditions: Staphylococcus aureus; VISA ATCC 700698; read-out: MIC
[13] = test system: MRSA 16-34; test: MIC, agar dilution, MRSA 16-34; assay type: cell-based; conditions: Staphylococcus aureus; MRSA 16-34; read-out: MIC
[14] = test system: MRSA ATCC -BAA-976; test: MIC, agar dilution, MRSA ATCC-BAA-976 (clindamycin-resistant); assay type: cell-based; conditions: Staphylococcus aureus; MRSA ATCC-BAA-976, clindamycin-resistant S. aureus; read-out: MIC
[15] = test system: MRSA ATCC-B AA-1708; test: MIC, agar dilution, MRSA ATCC-BAA-1708 (mupA positive); assay type: cell-based; conditions: Staphylococcus aureus; MRSA ATCC-BAA-1708, mupA positive (mupirocin resistance); read-out: MIC
[16] = test system: S.s ATCC 15305; test: MIC, agar dilution, S.s ATCC 15305; assay type: cell-based; conditions: Staphylococcus saprophyticus, ATCC15305; S. saprophyticus ATCC 15305; read-out: MIC
[17] = test system: MRSA 13-23; test: MIC, agar dilution, MRSA 13-23; assay type: cell-based; conditions: Staphylococcus aureus; MRSA 13-23; read-out: MIC

Compound: COc1ccc2c(c[n+]3ccc4cc5c(c6c(Cc7ccccc7)cc2c3c46)OCO5)c1O (as salt: chloride) [13a, 1,2-Methylenedioxy-8-hydroxy-9-methoxy-13-benzylcycloberberine chloride]
melting point: 248 to 250 °C

Compound: COc1ccc2c(c[n+]3ccc4cc5c(c6c(Cc7ccc(F)cc7)cc2c3c46)OCO5)c1O (as salt: chloride) [13b, 1,2-Methylenedioxy-8-hydroxy-9-methoxy-13-p-fluorobenzylcycloberberine chloride]
melting point: 203 to 205 °C

Compound: COc1ccc2c(c[n+]3ccc4cc5c(c6c(Cc7ccc(F)cc7F)cc2c3c46)OCO5)c1O (as salt: chloride) [13c, 1,2-Methylenedioxy-8-hydroxy-9-methoxy-13-2′,4′-difluorobenzylcycloberberine chloride]
melting point: 218 to 220 °C

Compound: COc1ccc2c(c[n+]3ccc4cc5c(c6c(Cc7c(F)cccc7F)cc2c3c46)OCO5)c1O (as salt: chloride) [13d, 1,2-Methylenedioxy-8-hydroxy-9-methoxy-13-2′,6′-difluorobenzylcycloberberine chloride]
melting point: 214 to 216 °C

Compound: COc1ccc2c(c[n+]3ccc4cc5c(c6c(Cc7ccc(Cl)cc7)cc2c3c46)OCO5)c1O (as salt: chloride) [13e, 1,2-Methylenedioxy-8-hydroxy-9-methoxy-13-p-chlorobenzylcycloberberine chloride]
melting point: 199 to 201 °C

Compound: COc1ccc2c(c[n+]3ccc4cc5c(c6c(Cc7ccc(Br)cc7)cc2c3c46)OCO5)c1O (as salt: chloride) [13f, 1,2-Methylenedioxy-8-hydroxy-9-methoxy-13-p-bromobenzylcycloberberine chloride]
melting point: 207 to 209 °C

Compound: COc1ccc2c(c[n+]3ccc4cc5c(c6c(Cc7ccccc7C)cc2c3c46)OCO5)c1O (as salt: chloride) [13g, 1,2-Methylenedioxy-8-hydroxy-9-methoxy-13-o-methylbenzylcycloberberine chloride]
melting point: 203 to 205 °C

Compound: COc1ccc2c(c[n+]3ccc4cc5c(c6c(Cc7cccc(C)c7)cc2c3c46)OCO5)c1O (as salt: chloride) [13h, 1,2-Methylenedioxy-8-hydroxy-9-methoxy-13-m-methylbenzylcycloberberine chloride]
melting point: 203 to 205 °C

Compound: COc1ccc2c(c[n+]3ccc4cc5c(c6c(Cc7ccc(C)cc7)cc2c3c46)OCO5)c1O (as salt: chloride) [13i, 1,2-Methylenedioxy-8-hydroxy-9-methoxy-13-p-methylbenzylcycloberberine chloride]
melting point: 229 to 231 °C

Compound: COc1ccc2c(c[n+]3ccc4cc5c(c6c(Cc7cc(C)cc(C)c7)cc2c3c46)OCO5)c1O (as salt: chloride) [13j, 1,2-Methylenedioxy-8-hydroxy-9-methoxy-13-3′,5′-dimethylbenzylcycloberberine chloride]
melting point: 218 to 220 °C

Compound: COc1ccc2c(c[n+]3ccc4cc5c(c6c(Cc7ccc(F)cc7)cc2c3c46)OCO5)c1O [13b, 1,2-Methylenedioxy-8-hydroxy-9-methoxy-13-p-fluorobenzylcycloberberine chloride]
MIC [1]: > 64 µg/mL
MIC [2]: > 64 µg/mL
MIC [3]: > 64 µg/mL
MIC [4]: > 64 µg/mL
MIC [5]: > 64 µg/mL
MIC [6]: > 64 µg/mL
MIC [7]: > 64 µg/mL
MIC [8]: > 64 µg/mL
MIC [9]: > 64 µg/mL
MIC [10]: > 64 µg/mL
MIC [11]: > 64 µg/mL
MIC [12]: > 64 µg/mL
MIC [13]: > 64 µg/mL
MIC [14]: > 64 µg/mL
MIC [15]: > 64 µg/mL
MIC [16]: > 64 µg/mL
MIC [17]: > 64 µg/mL

Compound: COc1ccc2c(c[n+]3ccc4cc5c(c6c(Cc7ccc(F)cc7F)cc2c3c46)OCO5)c1O [13c, 1,2-Methylenedioxy-8-hydroxy-9-methoxy-13-2′,4′-difluorobenzylcycloberberine chloride]
MIC [1]: 8 µg/mL
MIC [2]: 8 µg/mL
MIC [3]: 8 µg/mL
MIC [4]: 8 µg/mL
MIC [5]: 8 µg/mL
MIC [6]: 8 µg/mL
MIC [7]: 8 µg/mL
MIC [8]: 8 µg/mL
MIC [9]: 16 µg/mL
MIC [10]: 8 µg/mL
MIC [11]: 8 µg/mL
MIC [12]: 8 µg/mL
MIC [13]: 8 µg/mL
MIC [14]: 8 µg/mL
MIC [15]: 4 µg/mL
MIC [16]: 16 µg/mL
MIC [17]: 8 µg/mL

The next lines start with the values.

melting point: 212 to 214 °C
Compound: COc1ccc2c(c[n+]3ccc4cc5c(c6c(Cc7ccc(C(C)(C)C)cc7)cc2c3c46)OCO5)c1O (as salt: chloride) [13k, 1,2-Methylenedioxy-8-hydroxy-9-methoxy-13-p-tert-butylmethylbenzylcyclo berberine chloride]

melting point: 185 to 187 °C
Compound: COc1ccc2c(c[n+]3ccc4cc5c(c6c(Cc7ccc(OC(F)(F)F)cc7)cc2c3c46)OCO5)c1O (as salt: chloride) [13l, 1,2-Methylenedioxy-8-hydroxy-9-methoxy-13-p-trifluoromethoxybenzylcyclo berberine chloride]

melting point: 209 to 211 °C
Compound: COc1ccc2c(c[n+]3ccc4cc5c(c6c(Cc7ccccc7C#N)cc2c3c46)OCO5)c1O (as salt: chloride) [13m, 1,2-Methylenedioxy-8-hydroxy-9-methoxy-13-o-cyanbenzylcycloberberine chloride]

melting point: 189 to 191 °C
Compound: COc1ccc2c(c[n+]3ccc4cc5c(c6c(Cc7cccc(C#N)c7)cc2c3c46)OCO5)c1O (as salt: chloride) [13n, 1,2-Methylenedioxy-8-hydroxy-9-dimethoxy-13-m-cyanbenzylcycloberberine chloride]

melting point: 197 to 199 °C
Compound: COc1ccc2c(c[n+]3ccc4cc5c(c6c(Cc7ccc(C#N)cc7)cc2c3c46)OCO5)c1O (as salt: chloride) [13o, 1,2-Methylenedioxy-8-hydroxy-9-dimethoxy-13-p-cyanbenzylcycloberberine chloride]

melting point: 199 to 201 °C
Compound: COc1ccc2c(c[n+]3ccc4cc5c(c6c(Cc7ccccc7[N+](=O)[O-])cc2c3c46)OCO5)c1O (as salt: chloride) [13p, 1,2-Methylenedioxy-8-hydroxy-9-methoxy-13-o-nitrobenzylcycloberberine chloride]

melting point: 186 to 188 °C
Compound: COc1ccc2c(c[n+]3ccc4cc5c(c6c(Cc7cccc([N+](=O)[O-])c7)cc2c3c46)OCO5)c1O (as salt: chloride) [13q, 1,2-Methylenedioxy-8-hydroxy-9-methoxy-13-m-nitrobenzylcycloberberine chloride]

melting point: 186 to 188 °C
Compound: COc1ccc2c(c[n+]3ccc4cc5c(c6c(Cc7ccc([N+](=O)[O-])cc7)cc2c3c46)OCO5)c1O (as salt: chloride) [13r, 1,2-Methylenedioxy-8-hydroxy-9-methoxy-13-p-nitrobenzylcycloberberine chloride]

melting point: 213 to 215 °C
Compound: COc1ccc2c(c[n+]3ccc4cc5c(c6c(C(C)c7ccccc7)cc2c3c46)OCO5)c1O (stereo not shown) (as salt: chloride) [13s, 1,2-Methylenedioxy-8-hydroxy-9-methoxy-13-1′-phenylethylcycloberberine chloride]

melting point: 173 to 175 °C
Compound: COC(=O)C(c1ccccc1)c1cc2c3ccc(OC)c(O)c3c[n+]3ccc4cc5c(c1c4c23)OCO5 (stereo not shown) (as salt: chloride) [13t, 1,2-Methylenedioxy-8-hydroxy-9-methoxy-13-2′-methoxy-2′-oxo-1′-phenylethylcycloberberine chloride]

melting point: 165 to 167 °C
Compound: CCCc1cc2c3ccc(OC)c(O)c3c[n+]3ccc4cc5c(c1c4c23)OCO5 (as salt: chloride) [15b, 1,2-Methylenedioxy-8-hydroxy-9-methoxy-13-propylcycloberberine chloride]

melting point: 162 to 164 °C
Compound: CCCCc1cc2c3ccc(OC)c(O)c3c[n+]3ccc4cc5c(c1c4c23)OCO5 (as salt: chloride) [15c, 1,2-Methylenedioxy-8-hydroxy-9-methoxy-13-butylcycloberberine chloride]

melting point: 176 to 178 °C and 180 to 182 °C
Compound: COc1ccc2c(c[n+]3c4c2ccc2c(OC)c(OC)cc(c24)CC3)c1O (as salt: chloride) [compound 6, 1,2-Dimethoxy-8-hydroxy-9-methoxycycloberberine Chloride]

melting point: 191 to 193 °C
Compound: COc1ccc2c(c[n+]3c4c2ccc2c(O)c(O)cc(c24)CC3)c1O (as salt: chloride) [compound 10, 1,2,8-Trihydroxy-9-methoxycycloberberine Chloride]
